Among the data in ChEMBL document CHEMBL1149471, “Pharmacophore-based virtual screening: the discovery of novel methionyl-tRNA synthetase inhibitors” (Bioorg Med Chem Lett, 2006) are IC50 values, retold here.

Molecules are shown by their SMILES.

Sequence of Methionine--tRNA ligase (P00959 whole entry): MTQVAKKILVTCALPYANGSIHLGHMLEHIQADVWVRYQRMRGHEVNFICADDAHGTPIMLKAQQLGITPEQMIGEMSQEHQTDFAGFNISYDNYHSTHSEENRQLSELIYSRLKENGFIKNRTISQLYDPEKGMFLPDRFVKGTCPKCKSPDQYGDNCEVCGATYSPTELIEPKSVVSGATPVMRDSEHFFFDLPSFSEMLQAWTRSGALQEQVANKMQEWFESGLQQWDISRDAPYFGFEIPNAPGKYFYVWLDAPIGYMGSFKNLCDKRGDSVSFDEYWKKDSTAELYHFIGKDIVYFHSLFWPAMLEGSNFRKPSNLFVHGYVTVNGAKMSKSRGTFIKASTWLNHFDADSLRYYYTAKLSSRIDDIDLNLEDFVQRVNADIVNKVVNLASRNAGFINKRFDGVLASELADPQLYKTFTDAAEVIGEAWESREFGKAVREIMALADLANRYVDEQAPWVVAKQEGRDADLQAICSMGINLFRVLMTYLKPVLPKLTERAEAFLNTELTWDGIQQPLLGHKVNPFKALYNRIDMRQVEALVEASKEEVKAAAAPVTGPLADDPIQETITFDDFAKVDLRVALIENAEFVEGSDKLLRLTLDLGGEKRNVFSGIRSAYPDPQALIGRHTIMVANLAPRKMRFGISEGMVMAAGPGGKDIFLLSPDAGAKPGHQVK

This test concerns the target Methionine--tRNA ligase (Escherichia coli K-12, UniProt P00959). The test is described as follows: Inhibition of Escherichia coli MetRS assessed as decrease in [35S]methionyl tRNAMet production by SPA.
As usually defined, the IC50 is the concentration that inhibits the measured activity by half. Consider `O=C(CNC(=O)c1cccc(Br)c1)N/N=C/c1ccc(C(=O)O)cc1`, for which the IC50 came out at 22.8 µM. With `O=C(CNC(=O)c1cccs1)N/N=C/c1ccc(C(=O)O)cc1`, the IC50 was 0.237 µM. Next, `NS(=O)(=O)c1ccc(CCNC(=S)Nc2cccc(C(F)(F)F)c2)cc1`: 47.7 µM; `O=C(CC(=O)Nc1ccccc1C(=O)O)Nc1nc2ccc(Br)cc2s1`: 30.5 µM.
